Reference: patent publication US20230167088A1, “1-PYRAZINYLPYRAZOLYL-3-OXYALKYL ACIDS AND THEIR DERIVATIVES, AND THEIR USE FOR CONTROL OF UNDESIRED PLANT GROWTH” (BAYER AKTIENGESELLSCHAFT, priority 2020, published 2023)

How the values were obtained:
AVEFA = assay: Herbicidal post-emergence action 1a (greenhouse pots, visual rating); type: in vivo, Avena fatua; details: rated visually about 3 weeks after treatment, 100% = plants have died, 0% = like control plants
Outline: (§1)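 Weeds and crops sown in sandy loam in greenhouse pots were sprayed post-emergence at the one-leaf stage (2–3 weeks after sowing) with WP or EC formulations plus 0.5% additive at 600 l/ha water, 320 and/or 80 g/ha. About 3 weeks later damage was rated visually against untreated controls (0% = no effect, 100% = dead).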

LOLRI = assay: as above; type: in vivo, Lolium rigidum; details: rated visually about 3 weeks after treatment, 100% = plants have died, 0% = like control plants
Outline: as §1

PHBPU = assay: as above; type: in vivo, Pharbitis purpurea; details: visual rating about 3 weeks after treatment
Outline: as §1

VIOTR [1] = assay: as above; type: in vivo, Viola tricolor; details: visual rating about 3 weeks after treatment
Outline: as §1

POAAN = assay: Herbicidal post-emergence action 1b (twin sowing, 1280 g/ha); type: in vivo, Poa annua; details: dosage 1280 g/ha, visual rating about 3 weeks after treatment
Outline: (§2)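 Twin-sown weeds in sandy loam, greenhouse-grown 2–3 weeks, sprayed post-emergence at one-leaf stage with WP/EC formulations plus 0.5% additive at 600 L/ha water. Damage rated visually about 3 weeks later versus untreated controls (100% = plants dead, 0% = like control).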

ECHCG [2] = assay: as above; type: in vivo, Echinochloa crus-galli; details: dosage 1280 g/ha, visual rating about 3 weeks after treatment
Outline: as §2

MATIN = assay: as above; type: in vivo, Matricaria inodora; details: dosage 1280 g/ha, visual rating about 3 weeks after treatment
Outline: as §2

STEME = assay: as above; type: in vivo, Stellaria media; details: dosage 1280 g/ha, visual rating about 3 weeks after treatment
Outline: as §2

VIOTR [3] = assay: Herbicidal pre-emergence action 2a (greenhouse pots, visual scoring); type: in vivo, Viola tricolor; details: dosage 320 g/ha, visual scoring after about 3 weeks vs untreated controls
Outline: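 Visual percent rating, ~3 weeks after treatment, untreated pots as reference (0% = control-like, 100% = killed). Application: formulated compound on soil surface over seeds, 320 g/ha and/or 80 g/ha.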

ECHCG [4] = assay: Herbicidal pre-emergence action 2b (doubly sown, 1280 g/ha); type: in vivo, Echinochloa crus-galli; details: doubly sown pots, dosage 1280 g/ha, visual scoring after about 3 weeks
Outline: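 Pots of sandy loam doubly sown with one monocot and one dicot weed species, covered, then soil surface sprayed pre-emergence with WP or EC formulations plus 0.5% additive at 600 l/ha water. Greenhouse-grown about 3 weeks; activity scored visually as % versus untreated controls (100% = dead).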

harmful plants = assay: Herbicidal pre-emergence action 2a, summary across species; type: in vivo; details: Tables B1 to B15 (320 g/ha and/or 80 g/ha)
Outline: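 Pre-emergence greenhouse test: WP or EC formulations sprayed onto soil covering sown weed and crop seeds, 600 l/ha water with 0.5% additive, at 320 g/ha and/or 80 g/ha. Damage scored visually after about 3 weeks as % versus untreated control (100% = plants dead).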

Structure (SMILES)	Post-emergence action against AVEFA in % (AVEFA; Dosage 80 g/ha)	Post-emergence action against AVEFA in % (AVEFA; Dosage 320 g/ha)	Post-emergence action against LOLRI in % (LOLRI; Dosage 320 g/ha)	Post-emergence action against PHBPU in % (PHBPU; dosage 80 g/ha)	Post-emergence action against PHBPU in % (PHBPU; dosage 320 g/ha)	Post-emergence action against VIOTR in % (VIOTR [1]; dosage 80 g/ha)	Post-emergence action against VIOTR in % (VIOTR [1]; dosage 320 g/ha)	Post-emergence action at 1280 g/ha against POAAN in % (POAAN)	Post-emergence action at 1280 g/ha against ECHCG in % (ECHCG [2])	Post-emergence action at 1280 g/ha against MATIN in % (MATIN)	Post-emergence action at 1280 g/ha against STEME in % (STEME)	Pre-emergence action against VIOTR in % (VIOTR [3])	Pre-emergence action at 1280 g/ha against ECHCG in % (ECHCG [4])	herbicidal efficacy against harmful plants in the case of pre-emergence treatment (in words) (harmful plants)	Post-emergence action against LOLRI in % (LOLRI; Dosage 80 g/ha)
COC(=O)C(C)Oc1nn(-c2cnccn2)c(-c2ccc(F)nc2)c1Br (racemic) [Example I-12]	100%	100%	90%	80%	90%	90%	100%	100%	90%	90%	100%	100%	100%	good herbicidal efficacy	
COC(=O)C(C)Oc1nn(-c2cnccn2)c(-c2ccc(F)c(F)c2)c1Br (racemic) [Example I-16]	90%	100%	90%		90%	80%	90%	100%	100%	90%	100%	100%	100%	good herbicidal efficacy	
C[C@H](Oc1nn(-c2cnccn2)c(-c2cncc(F)c2)c1Br)C(=O)O [Example I-37]	90%	90%	90%		80%	80%	90%	100%	100%	90%	100%	100%	100%	good herbicidal efficacy	
CCOC(=O)COc1nn(-c2cnccn2)c(-c2ccc(F)nc2)c1Cl [Example I-53]				80%		90%		100%	100%	100%	100%	100%	100%	good herbicidal efficacy	
COC(=O)[C@@H](C)Oc1nn(-c2cnccn2)c(-c2ccc(F)nc2)c1Cl [Example I-36]	90%	90%	90%	90%	90%	90%	90%	100%	100%	90%	100%	100%	90%	good herbicidal efficacy	
COC(=O)[C@@H](C)Oc1nn(-c2cnccn2)c(-c2ccc(F)c(F)c2)c1Br [Example I-45]		80%	90%		90%	80%	90%	100%	100%		100%	100%	100%	good herbicidal efficacy	90%
COC(=O)[C@@H](C)Oc1nn(-c2cnccn2)c(-c2cccc(F)c2)c1Br [Example I-20]	90%	90%	100%		90%	80%		100%	100%	100%	100%	90%	100%	good herbicidal efficacy	90%
C[C@@H](Oc1nn(-c2cnccn2)c(-c2cccc(F)c2)c1Br)C(=O)O [Example I-48]	80%							100%	100%	100%	100%	100%	100%	good herbicidal efficacy	
COC(=O)[C@@H](C)Oc1nn(-c2cnccn2)c(-c2ccc(F)c(F)c2)c1C#N [Example I-46]	80%	80%	90%					100%	100%	90%	90%	100%	100%	good herbicidal efficacy	90%
